In ChEMBL document CHEMBL1126121, “Non-prostanoid thromboxane A2 receptor antagonists with a dibenzoxepin ring system. 1” (J Med Chem, 1992):

Legend:
[1] = biological target: T1, Thromboxane-A synthase (Homo sapiens) (UniProt P24557); assay: Inhibitory activity against thromboxane A2 synthase obtained from bovine platelet microsomes at 10 uM; conditions: Bos taurus, target entry is the homologue from another species
T1 sequence (whole entry): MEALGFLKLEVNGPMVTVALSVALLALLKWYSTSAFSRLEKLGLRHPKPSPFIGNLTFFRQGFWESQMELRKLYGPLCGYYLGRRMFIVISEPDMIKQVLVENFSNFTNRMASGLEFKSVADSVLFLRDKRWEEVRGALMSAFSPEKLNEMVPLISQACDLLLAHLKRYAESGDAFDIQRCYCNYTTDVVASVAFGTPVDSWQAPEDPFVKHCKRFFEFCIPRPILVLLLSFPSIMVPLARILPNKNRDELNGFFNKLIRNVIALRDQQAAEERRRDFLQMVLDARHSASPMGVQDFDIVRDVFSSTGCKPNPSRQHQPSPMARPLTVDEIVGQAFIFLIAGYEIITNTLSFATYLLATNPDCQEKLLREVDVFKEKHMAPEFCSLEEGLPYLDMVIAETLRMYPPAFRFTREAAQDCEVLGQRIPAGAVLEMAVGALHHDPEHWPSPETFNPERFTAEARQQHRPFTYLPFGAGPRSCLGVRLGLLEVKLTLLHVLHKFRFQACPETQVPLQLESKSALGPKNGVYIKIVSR

[2] = biological target: T2, Thromboxane A2 receptor (Homo sapiens) (UniProt P21731); assay: Inhibitory effect against binding thromboxane A2 receptor on guinea pig platelets using [3H]U-46619 as radioligand at 1 uM concentration; conditions: Cavia porcellus, target entry is the homologue from another species
T2 sequence (whole entry): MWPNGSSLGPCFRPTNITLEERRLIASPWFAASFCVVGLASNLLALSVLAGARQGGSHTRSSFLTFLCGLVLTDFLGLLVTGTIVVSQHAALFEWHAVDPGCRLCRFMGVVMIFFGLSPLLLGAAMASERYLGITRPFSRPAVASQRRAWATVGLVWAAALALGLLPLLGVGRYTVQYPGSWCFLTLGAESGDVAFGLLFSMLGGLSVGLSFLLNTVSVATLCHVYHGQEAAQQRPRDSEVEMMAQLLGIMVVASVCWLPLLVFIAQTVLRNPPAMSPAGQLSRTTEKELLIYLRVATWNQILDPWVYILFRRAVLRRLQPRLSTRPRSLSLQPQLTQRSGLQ

[3] = biological target: T2, Thromboxane A2 receptor (Homo sapiens); assay: Binding affinity for thromboxane A2 receptor by measuring its ability to displace [3H]U-46619 from guinea pig platelets at 0.1 uM; conditions: Cavia porcellus, target entry is the homologue from another species
[4] = tested on: Thromboxane-A synthase (Bos taurus); assay: Inhibitory effect against thromboxane A2 synthase from bovine platelets at 10 uM concentration
[5] = biological target: T2, Thromboxane A2 receptor (Homo sapiens); assay: Binding affinity for thromboxane A2 receptor by measuring ability to displace [3H]U-46619 from guinea pig platelets at 1 uM; conditions: Cavia porcellus, target entry is the homologue from another species
Cavia porcellus [6] = assay: Compound was tested ex vivo for it''s inhibition of U-46619 induced platelet aggregation in the guinea pig after 2 hr of administration at dose 10 mg/kg; type: functional
Cavia porcellus [7] = assay: Inhibitory effect of the compounds on U-46619-induced platelet aggregation ex vivo in guinea pig at the dose of 10 mg/kg 2 hr after oral administration; type: functional
Cavia porcellus [8] = assay: Inhibitory effect of the compounds on U-46619-induced platelet aggregation ex vivo in guinea pig at the dose of 10 mg/kg 7 hr oral after administration; type: functional
Cavia porcellus [9] = assay: Inhibitory effect of the compounds on U-46619-induced platelet aggregation ex vivo in guinea pig at the dose of 10 mg/kg 4 hr after oral administration; type: functional
Cavia porcellus [10] = assay: Compound was tested ex vivo for it''s inhibition of U-46619 induced platelet aggregation in the guinea pig after 4 hr of administration at dose 10 mg/kg; type: functional
Cavia porcellus [11] = assay: Compound was tested ex vivo for it's inhibition of U-46619 induced platelet aggregation in the guinea pig after 2 hr of administration at dose 10 mg/kg; type: functional

## COc1ccc(S(=O)(=O)NCCSC2c3ccccc3COc3ccc(C(=O)O)cc32)cc1 (stereo unspecified)
[1]
  inhibition: 75%
[2]
  inhibition: 93%
[3]
  inhibition: 83%
[4]
  inhibition: 75%
[5]
  inhibition: 93%

## O=C(O)c1ccc2c(c1)C(SCCNS(=O)(=O)c1cccc([N+](=O)[O-])c1)c1ccccc1CO2 (stereo unspecified)
[1]
  inhibition: 54%
[2]
  inhibition: 93%
[3]
  inhibition: 83%
[4]
  inhibition: 54%
[5]
  inhibition: 93%

## COc1ccccc1C(=O)NCCSC1c2ccccc2COc2ccc(C(=O)O)cc21 (stereo unspecified)
[2]
  inhibition: 97%
[3]
  inhibition: 86%
[5]
  inhibition: 97%

## Cc1ccc2c(c1)C(SCCNS(=O)(=O)c1ccccc1)c1ccccc1CO2 (stereo unspecified)
[1]
  inhibition: -10%
[2]
  inhibition: 27%
[3]
  inhibition: 1%
[4]
  inhibition: -10%
[5]
  inhibition: 27%

## O=C(O)c1ccc2c(c1)C(SCCNS(=O)(=O)c1ccccc1)c1ccccc1OC2 (stereo unspecified)
[1]
  inhibition: 53%
[2]
  inhibition: 64%
[3]
  inhibition: 21%
[4]
  inhibition: 53%
[5]
  inhibition: 64%

## O=C(O)c1ccc2c(c1)C(SCCNC(=O)C1CCCCC1)c1ccccc1CO2 (stereo unspecified)
[1]
  inhibition: 19%
[2]
  inhibition: 66%
[3]
  inhibition: 20%
[4]
  inhibition: 19%
[5]
  inhibition: 66%

## O=C(NCCSC1c2ccccc2COc2ccc(C(=O)O)cc21)Nc1ccccc1 (stereo unspecified)
[1]
  inhibition: 58%
[2]
  inhibition: 98%
[3]
  inhibition: 67%
[4]
  inhibition: 58%
[5]
  inhibition: 98%

## O=C(O)c1ccc2c(c1)C(SCCNC(=O)c1ccccc1O)c1ccccc1CO2 (stereo unspecified)
[1]
  inhibition: 53%
Cavia porcellus [6]
  Aggregation: 64.5%
Cavia porcellus [7]
  Platelet aggregation: 64.5%
[2]
  inhibition: 99%
[3]
  inhibition: 90%
[4]
  inhibition: 53%
[5]
  inhibition: 99%

## O=C(O)c1ccc2c(c1)C(SCCNS(=O)(=O)/C=C/c1ccccc1)c1ccccc1CO2 (single isomer, unassigned; (+))
Cavia porcellus [7]
  Platelet aggregation: 0%
Cavia porcellus [8]
  Platelet aggregation: 10.7%
Cavia porcellus [9]
  Platelet aggregation: 2.3%

## O=C(O)Cc1ccc2c(c1)C(SCCNS(=O)(=O)c1ccccc1)c1ccccc1CO2 (stereo unspecified)
[1]
  inhibition: 13%
[3]
  inhibition: 30%
[5]
  inhibition: 84%

## O=C(O)c1ccc2c(c1)C(SCCNS(=O)(=O)c1ccc(F)cc1)c1ccccc1CO2 (stereo unspecified)
[1]
  inhibition: 33%
[2]
  inhibition: 93%
[3]
  inhibition: 61%
[4]
  inhibition: 33%
[5]
  inhibition: 93%

## Cc1ccc(S(=O)(=O)NCCSC2c3ccccc3COc3ccc(C(=O)O)cc32)cc1 (stereo unspecified)
[1]
  inhibition: 77%
[2]
  inhibition: 93%
[3]
  inhibition: 76%
[4]
  inhibition: 77%
[5]
  inhibition: 93%

## O=C(O)c1ccc2c(c1)C(SCCNS(=O)(=O)c1cccnc1)c1ccccc1CO2 (stereo unspecified)
[2]
  inhibition: 93%
[3]
  inhibition: 67%
[5]
  inhibition: 93%

## O=C(NCCSC1c2ccccc2COc2ccc(C(=O)O)cc21)NCc1ccccc1 (stereo unspecified)
[1]
  inhibition: 41%
[2]
  inhibition: 87%
[3]
  inhibition: 47%
[4]
  inhibition: 41%
[5]
  inhibition: 87%

## O=C(O)c1ccc2c(c1)C(SCCNS(=O)(=O)c1ccc(C(F)(F)F)cc1)c1ccccc1CO2 (stereo unspecified)
[1]
  inhibition: -9%
[2]
  inhibition: 92%
[3]
  inhibition: 70%
[4]
  inhibition: -9%
[5]
  inhibition: 92%

## O=C(O)c1ccc2c(c1)C(SCCNS(=O)(=O)c1ccc(Cl)cc1)c1ccccc1CO2 (stereo unspecified)
[1]
  inhibition: 79%
[2]
  inhibition: 94%
[3]
  inhibition: 64%
[4]
  inhibition: 79%
[5]
  inhibition: 94%

## COc1cc(C(=O)NCCSC2c3ccccc3COc3ccc(C(=O)O)cc32)cc(OC)c1OC (stereo unspecified)
[1]
  inhibition: 92%
[2]
  inhibition: 87%
[3]
  inhibition: 50%
[4]
  inhibition: 92%
[5]
  inhibition: 87%

## O=C(O)c1ccc2c(c1)C(SCC/N=C(\S)NCc1ccccc1)c1ccccc1CO2 (stereo unspecified)
[1]
  inhibition: 92%
Cavia porcellus [10]
  Aggregation: 61.7%
Cavia porcellus [7]
  Platelet aggregation: 61.7%
[2]
  inhibition: 96%
[3]
  inhibition: 80%
[4]
  inhibition: 92%
[5]
  inhibition: 96%

## COc1ccc(S(=O)(=O)NCCSC2c3ccccc3COc3ccc(C(=O)O)cc32)cc1OC (stereo unspecified)
[1]
  inhibition: 70%
[2]
  inhibition: 91%
[3]
  inhibition: 49%
[4]
  inhibition: 70%
[5]
  inhibition: 91%

## CCCCCC(=O)NCCSC1c2ccccc2COc2ccc(C(=O)O)cc21 (stereo unspecified)
[1]
  inhibition: 4%
[2]
  inhibition: 88%
[3]
  inhibition: 51%
[4]
  inhibition: 4%
[5]
  inhibition: 88%

## O=C(O)c1ccc2c(c1)C(SCCNS(=O)(=O)c1ccccc1)c1ccccc1CC2 (stereo unspecified)
[1]
  inhibition: 68%
[2]
  inhibition: 95%
[3]
  inhibition: 71%
[4]
  inhibition: 68%
[5]
  inhibition: 95%

## CN(CCSC1c2ccccc2COc2ccc(C(=O)O)cc21)S(=O)(=O)c1ccccc1 (stereo unspecified)
[2]
  inhibition: 92%
[3]
  inhibition: 73%
[5]
  inhibition: 92%

## COc1ccc(C(=O)NCCSC2c3ccccc3COc3ccc(C(=O)O)cc32)c(OC)c1OC (stereo unspecified)
[2]
  inhibition: 97%
[3]
  inhibition: 82%
[5]
  inhibition: 97%

## O=C(O)c1ccc2c(c1)C(SCCNS(=O)(=O)c1ccccc1)c1ccccc1C=C2 (stereo unspecified)
[1]
  inhibition: 74%
[2]
  inhibition: 97%
[3]
  inhibition: 67%
[4]
  inhibition: 74%
[5]
  inhibition: 97%

## O=C(O)c1ccc2c(c1)C(SCCNC(=O)c1ccccc1)c1ccccc1CO2 (stereo unspecified)
[1]
  inhibition: 63%
Cavia porcellus [6]
  Aggregation: 68.3%
Cavia porcellus [7]
  Platelet aggregation: 68.3%
[2]
  inhibition: 92%
[3]
  inhibition: 69%
[4]
  inhibition: 63%
[5]
  inhibition: 92%

## O=C(O)c1ccc2c(c1)C(SCCNS(=O)(=O)c1cccc3cccnc13)c1ccccc1CO2 (stereo unspecified)
[1]
  inhibition: 63%
[2]
  inhibition: 90%
[3]
  inhibition: 44%
[4]
  inhibition: 63%
[5]
  inhibition: 90%

## O=C(O)c1ccc2c(c1)C(SCCNS(=O)(=O)c1ccccc1)c1ccccc1CS2 (stereo unspecified)
Cavia porcellus [10]
  Aggregation: 0%
Cavia porcellus [6]
  Aggregation: 0%
Cavia porcellus [7]
  Platelet aggregation: 0%
[2]
  inhibition: 99%
[3]
  inhibition: 94%
[5]
  inhibition: 99%
Cavia porcellus [9]
  Platelet aggregation: 0%

## COc1ccc(OC)c(S(=O)(=O)NCCSC2c3ccccc3COc3ccc(C(=O)O)cc32)c1 (stereo unspecified)
[1]
  inhibition: 62%
[2]
  inhibition: 92%
[3]
  inhibition: 66%
[4]
  inhibition: 62%
[5]
  inhibition: 92%

## O=C(O)c1ccc2c(c1)C(SCCNS(=O)(=O)c1ccccc1[N+](=O)[O-])c1ccccc1CO2 (stereo unspecified)
[1]
  inhibition: 72%
[2]
  inhibition: 99%
[3]
  inhibition: 72%
[4]
  inhibition: 79%
[5]
  inhibition: 99%

## O=C(O)c1cccc(C(SCCNS(=O)(=O)c2ccccc2)c2ccccc2)c1 (stereo unspecified)
[1]
  inhibition: 19%
[2]
  inhibition: 85%
[3]
  inhibition: 41%
[4]
  inhibition: 19%
[5]
  inhibition: 85%

## Cc1ccsc1C(=O)NCCSC1c2ccccc2COc2ccc(C(=O)O)cc21 (stereo unspecified)
[1]
  inhibition: 79%
[2]
  inhibition: 94%
[3]
  inhibition: 81%
[4]
  inhibition: 79%
[5]
  inhibition: 94%

## O=C(O)c1ccc2c(c1)C(SCCNS(=O)(=O)c1ccccc1)c1cc(Br)ccc1CO2 (stereo unspecified)
[1]
  inhibition: 6%
Cavia porcellus [7]
  Platelet aggregation: 41%
[2]
  inhibition: 94%
[3]
  inhibition: 75%
[4]
  inhibition: 6%
[5]
  inhibition: 94%
Cavia porcellus [11]
  Aggregation: 41%

## COc1cccc(OC)c1C(=O)NCCSC1c2ccccc2COc2ccc(C(=O)O)cc21 (stereo unspecified)
[2]
  inhibition: 72%
[3]
  inhibition: 20%
[5]
  inhibition: 72%

## O=C(O)c1ccc2c(c1)C(SCCNS(=O)(=O)c1ccc([N+](=O)[O-])cc1)c1ccccc1CO2 (stereo unspecified)
[1]
  inhibition: 41%
[2]
  inhibition: 90%
[3]
  inhibition: 58%
[4]
  inhibition: 41%
[5]
  inhibition: 90%

## O=C(O)c1ccc2c(c1)OCc1ccccc1C2SCCNS(=O)(=O)c1ccccc1 (stereo unspecified)
[1]
  inhibition: 96%
[2]
  inhibition: 36%
[3]
  inhibition: -3%
[4]
  inhibition: 96%
[5]
  inhibition: 36%
